{
  "source": "patent US20090257985A1",
  "about": "“METHODS OF REGULATING EXPRESSION OF GENES OR OF GENE PRODUCTS USING SUBSTITUTED TETRACYCLINE COMPOUNDS” (priority 2006, published 2009)",
  "key": {"[1]": {"tested_on": "rtTA", "conditions": "in vitro; relative to doxycycline"}, "[2]": {"tested_on": "rtTA2-MT2", "test": "rtTA-mediated gene activation, luciferase positive cell line MT2", "type": "cell-based", "source_text": "(§1) FIGS. 2A-2D show a comparison of doxycycline and 9-t-butyl doxcycline in 34R and MT2 rtTA mutants. FIGS. 2A and 2B show the effect of doxycyline on 34R and MT2 mutants, respectively. FIGS. 2C and 2D show the effect of 9-t-butyl doxycycline on 34R and MT2 mutants, respectively."}, "[3]": {"tested_on": "rtTA2-34R", "test": "rtTA-mediated gene activation, luciferase positive cell line 34R", "type": "cell-based", "conditions": "FIGS. 2A and 2C", "source_text": "as §1"}, "[4]": {"tested_on": "rtTA2s-M2", "test": "Activation of rtTA2s-M2 gene in vivo, bioluminescence of bitransgenic mice rTA M2CaMK-1/LC1", "conditions": "0.2 mg/mL in drinking water with 5% sucrose, seven days, compared with doxycycline at 2 mg/mL", "procedure": "9-t-butyl doxycycline was tested in bitransgenic mice with rTA M2CaMK-1/LC1. The mice expressed the rtTA2s-M2 gene under control of the forebrain specific α-CamKII promoter. In addition, the LC1 mouse had luciferase and cre genes under the control of the bi-directional promoter. The mice were adminstered doxycycline (2 mg/mL) for seven days in the drinking water with 5% sucrose or with 9-t-butyl doxycycline at (0.2 and 2 mg/mL). The mice were anaesthetized with avertin and injected with […] (IP) and placed in the bioluminescence chamber and measured 5 minutes later."}, "[5]": {"conditions": "described in Mansuy and Bujard Curr. Op. Neurobiol. 10:593-96; cited from earlier work"}, "[6]": {"tested_on": "tet operator-linked nucleotide sequence", "conditions": "as demonstrated in U.S. Pat. No. 5,789,156; cited from earlier work"}, "[7]": {"tested_on": "rtTA2s-M2", "test": "Activation of rtTA2s-M2 in vitro", "type": "cell-based", "conditions": "relative to doxycycline"}},
  "data": [
    {"compound": "9-t-butyl doxycycline", "values": [
      {"measurement": "concentration inducing all rtTA's, lower than doxycycline", "setting": "[1]", "result": 10, "unit": "fold"},
      {"measurement": "activity compared with doxycycline, MT2 rtTA mutant", "setting": "[2]; FIGS. 2B and 2D", "result": "ten times more active"},
      {"measurement": "concentration at which full induction of the system occurred", "setting": "[2]; rtTA2-MT2 system", "result": 10, "unit": "ng/mL"},
      {"measurement": "activity compared with doxycycline, 34R rtTA mutant", "setting": "[3]", "result": "ten times more active"},
      {"measurement": "activation response (luciferase bioluminescence)", "setting": "[4]", "result": "better activation response"}
    ]},
    {"compound": "C[C@H]1c2cccc(O)c2C(=O)C2=C(O)[C@]3(O)C(=O)C(C(N)=O)=C(O)[C@@H](N(C)C)[C@@H]3[C@@H](O)[C@@H]21", "note": "[doxycycline]", "values": [
      {"measurement": "penetration of the blood-brain barrier", "setting": "[5]", "result": "limited penetration of the blood-brain barrier"}
    ]},
    {"compound": "Cc1c2c(c(O)c3c(O)cccc13)C(=O)[C@]1(O)C(=O)C(C(N)=O)=C(O)[C@@H](N(C)C)[C@@H]1C2", "note": "[anhydrotetracycline]", "values": [
      {"measurement": "strength as inducing agent", "setting": "[6]", "result": "strong inducing agents"}
    ]},
    {"compound": "5-phenylcarbamate doxcycline", "values": [
      {"measurement": "activation of rtTA2s-M2 compared with doxycycline", "setting": "[7]", "result": "two fold better activiator"}
    ]}
  ]
}
